The values below come from publication PMC3292421 (International Journal of Nanomedicine, 2012).

Read-outs that look alike come from different tables or passages of the source.

The conditions of series [1]: 25°C.
For series [2] the following is noted: long-term animal studies; cited from earlier work.
In another series the test system is P-glycoprotein. The note with it: cited from earlier work.

In the case of `O=C1Nc2ccccc2/C1=C1/Nc2ccccc2C1=O` [indirubin], the Solubility in series [1] (in Cremophor EL (surfactant)) is 1.305 µmol/g; in series [1] (in Cremophor RH40 (surfactant)) it was 0.631 µmol/g; in series [1] (in GTCC (caprylic/capric triglyceride, oil)), 0.154 µmol/g; in series [1] (in IPM (isopropyl myristate, oil)), 0.087 µmol/g; in series [1] (in Labrafac Lipophile WL1349 (oil)), 0.159 µmol/g; in series [1] (in Labrafil M2125CS (oil)), 0.338 µmol/g. Besides, the Solubility in series [1] (in Maisine 35-1 (oil)) was 0.755 µmol/g; in series [1] (in Olive oil (oil)), 0.145 µmol/g; in series [1] (in PEG 200 (cosurfactant)) it was 0.093 µmol/g; in series [1] (in PEG 400 (cosurfactant)), 0.143 µmol/g; in series [1] (in Transcutol P (cosurfactant)), 1.356 µmol/g. In series [2], the “Bone marrow toxicity and hematotoxicity” value is “neither bone marrow toxicity nor hematotoxicity”. For the same compound, the “Influence of P-glycoprotein on transport through the rat intestine membrane” value with P-glycoprotein is “not influenced”.
